Reference: patent US10266526B2, “Substituted 1,2,3-triazoles as SMYD inhibitors for treating cancer” (EPIZYME, INC., priority 2014, dated 2019)
Structures can show the parent of a compound that is named as a salt.

Columns and labels:
SMYD3 [1] = biological target: T1, SMYD3 (Homo sapiens (Human), UniProt Q9H7B4); test: SMYD3 biochemical assay (SMYD3 enzyme assay on MEKK2 protein substrate, 3H-SAM scintillation proximity assay); conditions: read-out: SMYD3 Biochem IC50
Method in brief: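 Native full-length human SMYD3, expressed in E. coli, was preincubated with compound for 30 min at room temperature in 25 mM Tris-Cl pH 8.0, 1 mM TCEP, 0.005% BSG and 0.005% Tween 20. ³H-SAM plus GST-MEKK2 then started the reaction. It was stopped with unlabeled SAM (100 uM final), and methylated MEKK2 was read by SPA.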

SMYD3 [2] = biological target: T1, SMYD3; test: SMYD3 cell assay (Trimethyl-MEKK2 In-Cell Western in 293T/17 cells transfected with MEKK2-flag and SMYD3); type: cell-based; conditions: Table 3A; average of n = 1 to n = 50; read-out: SMYD3 cell IC50
Excerpt: Trimethyl-MEKK2-in-Cell Western Assay
MEM/Glutamax medium, Optimem Reduced Serum medium, penicillin-streptomycin, 0.05% trypsin and 1×D-PBS were purchased from Life Technologies, Grand Island, N.Y., USA. PBS-10× was purchased from Ambion, Life Technologies, Grand Island, N.Y., USA. PBS with Tween 20 (PBST (10×)) was purchased from KPL, Gaithersburg, Md., USA. Tet System FBS-approved FBS US Source was purchased from Clontech, Mountain View, Calif., USA. Odyssey blocking buffer, 800CW goat anti-rabbit IgG (H+L) antibody, 680CW Goat anti-mouse IgG (H+L) and Licor Odyssey infrared scanner were purchased from Licor Biosciences, Lincoln, Nebr., USA. Tri-methyl-Lysine [A260]-MEKK2 antibody, MEKK2 and SMYD3 plasmids were made at Epizyme. Anti-flag monoclonal mouse antibody was purchased from Sigma, St. Louis, Mo., USA. Methanol was purchased from VWR, Franklin, Mass., USA. 10% Tween 20 was purchased from KPL, Inc., Gaithersburg, Md., USA. Fugene was purchased from Promega, Madison, Wis., USA. The Biotek ELx405 was purchased from BioTek, Winooski, Vt., USA. The multidrop combi was purchased from Thermo Scientific, Waltham, Mass., USA.
Cell Treatment, in Cell Western (ICW) for Detection of Trimethyl-Lysine-MEKK2 and MEKK2.
Plasmids were prepared for delivery to cells by first mixing 1350 μL Opti-MEM with Fugene (81 μL) in a sterile Eppendorf and incubated for five minutes at room temperature (RT). […] Entire volume of Opti-MEM/Fugene mixture was then added to a microfuge tube containing DNA plasmid, mixed and then incubated ×15 minutes at RT. […] Medium was then removed, and cells were washed once with PBS in the flask. Trypsin 0.05% (3 mL) was added and cells incubated for three minutes. Room temperature MEM+10% Tet system FBS was added and cells were mixed gently, and counted using the Vi-cell. Cells were seeded at 100,000 cells/mL in 50 μL MEM/10% Tet FBS/Pen/Strep to a 384 well black/clear poly-D-lysine coated plate containing test agent diluted in DMSO. The final top concentration of test compound was 40 μM. […] Plates were incubated ×30 minutes at RT in low-airflow area, followed by incubation at 37° C. under 5% CO2 for 24 hours. Medium was aspirated from all wells of assay plates prior to fixation and permeabilization with ice cold (−20° C.) methanol (90 μL/well) for ten minutes. Plates were rinsed with PBS three times on BioTek ELx405. PBS was removed with a final aspiration, and Odyssey blocking buffer (50 μL/well) was added to each well and incubated for one hour at RT. Primary antibody solution was prepared (anti-trimethyl-MEKK2 at 1:600 dilution plus mouse anti-flag antibody at 1:10,000 dilution in diluent (Odyssey Blocking buffer+0.1% Tween 20)) and 20 μL per well was dispensed using the Multidrop Combi. Assay plates were then sealed with foil, and incubated overnight at 4° C. Plates were washed five times with PBS-Tween (1×) on Biotek ELx405 and blotted on paper towel to remove excess reagent.
First, the ratio for each well was determined by:
Each plate included fourteen control wells of DMSO only treatment (Minimum Inhibition) as well as fourteen control wells for maximum inhibition (Background). The average of the ratio values for each control type was calculated and used to determine the percent inhibition for each test well in the plate. Reference compound was serially diluted two-fold in DMSO for a total of nine test concentrations, beginning at 40 μM. Percent inhibition was calculated (below).
Non-linear regression curves were generated to calculate the IC50 and dose-response relationship using triplicate wells per concentration of compound.

[3] = Table 3A, average of n = 1 to n = 50

T1 sequence (Q9H7B4 whole entry): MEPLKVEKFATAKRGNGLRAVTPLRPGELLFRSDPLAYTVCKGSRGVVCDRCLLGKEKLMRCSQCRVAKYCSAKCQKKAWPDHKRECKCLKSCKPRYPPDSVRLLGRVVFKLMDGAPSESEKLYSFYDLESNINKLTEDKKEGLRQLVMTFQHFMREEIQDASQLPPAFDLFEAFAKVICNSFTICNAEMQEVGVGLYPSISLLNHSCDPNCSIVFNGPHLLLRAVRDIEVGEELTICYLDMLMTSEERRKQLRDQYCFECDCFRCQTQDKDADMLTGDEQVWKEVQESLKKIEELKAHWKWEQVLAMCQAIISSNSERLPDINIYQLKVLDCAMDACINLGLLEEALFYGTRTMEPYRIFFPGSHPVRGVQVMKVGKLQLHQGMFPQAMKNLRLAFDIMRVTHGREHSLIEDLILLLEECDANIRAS

SMILES	IC50 (SMYD3 [1]; [3]) [nM]	IC50 (SMYD3 [2]) [nM]	IC50 (SMYD3 [1]) [nM]
NC1CCN(S(=O)(=O)N2[C@@H]3CC[C@H]2C[C@@H](NC(=O)c2ccc4c(c2)NC(=O)CO4)C3)CC1 [compound 609, N-((1R,3r,5S)-8-(4-aminopiperidin-1-ylsulfonyl)-8-aza-bicyclo[3.2.1]octan-3-yl)-3-oxo-3,4-dihydro-2H-benzo[b][1,4]oxazine-6-carboxamide Hydrochloride]	23.7	3700	–
CN1C(=O)Cc2cc(C(=O)N[C@H]3C[C@H]4CC[C@@H](C3)N4S(=O)(=O)CC3CCNCC3)ccc21 [compound 611, 1-methyl-2-oxo-N-((1R,3r,5S)-8-((piperidin-4-ylmethyl)sulfonyl)-8-azabicyclo[3.2.1]octan-3-yl)indoline-5-carboxamide]	25.9	3920	–
CC(C)(N)c1ccc(S(=O)(=O)N2[C@@H]3CC[C@H]2C[C@@H](NC(=O)c2ccc4c(c2)CC(=O)N4)C3)cc1 [compound 612, N-((1R,3r,5S)-8-((4-(2-aminopropan-2-yl)phenyl)sulfonyl)-8-azabicyclo[3.2.1]octan-3-yl)-2-oxoindoline-5-carboxamide]	30.7	2530	–
CC(C)(N)c1ccc(S(=O)(=O)N2[C@@H]3CC[C@H]2C[C@@H](NC(=O)c2cc4c(cc2Cl)NC(=O)C4)C3)cc1 [compound 613, N-((1R,3r,5S)-8-((4-(2-aminopropan-2-yl)phenyl)sulfonyl)-8-azabicyclo[3.2.1]octan-3-yl)-6-chloro-2-oxoindoline-5-carboxamide]	37.1	1770	–
O=C1Cc2cc(C(=O)N[C@H]3C[C@H]4CC[C@@H](C3)N4S(=O)(=O)CCN3CCCC3)c(Cl)cc2N1 [compound 614, 6-chloro-2-oxo-N-((1R,3r,5S)-8-((2-(pyrrolidin-1-yl)ethyl)sulfonyl)-8-azabicyclo[3.2.1]octan-3-yl)indoline-5-carboxamide]	46	380	–
O=C1Cc2cc(C(=O)N[C@H]3C[C@H]4CC[C@@H](C3)N4S(=O)(=O)CCN3CCCC3)ccc2N1 [compound 615, 2-oxo-N-((1R,3r,5S)-8-((2-(pyrrolidin-1-yl)ethyl)sulfonyl)-8-azabicyclo[3.2.1]octan-3-yl)indoline-5-carboxamide]	–	761	49.7
CCc1cnnc(C(=O)N[C@H]2C[C@H]3CC[C@@H](C2)N3S(=O)(=O)N2CCC(N)CC2)c1 [compound 616, N-[(1R,3r,5S)-8-(4-aminopiperidine-1-sulfonyl)-8-azabicyclo[3.2.1]octan-3-yl]-5-ethylpyridazine-3-carboxamide Trifluoroacetate]	–	540	49.9
CN1C(=O)Cc2cc(C(=O)N[C@H]3C[C@H]4CC[C@@H](C3)N4S(=O)(=O)CC3CCNCC3)c(Cl)cc21 [compound 617, 6-chloro-1-methyl-2-oxo-N-((1R,3r,5S)-8-((piperidin-4-ylmethyl)sulfonyl)-8-azabicyclo[3.2.1]octan-3-yl)indoline-5-carboxamide]	52.3	2960	–
NC1CCN(S(=O)(=O)N2[C@@H]3CC[C@H]2C[C@@H](NC(=O)c2nnc(C4CC4)s2)C3)CC1 [compound 618, N-((1R,3r,5S)-8-((4-aminopiperidin-1-yl)sulfonyl)-8-azabicyclo[3.2.1]octan-3-yl)-5-cyclopropyl-1,3,4-thiadiazole-2-carboxamide]	55.8	348	–
CCc1cnnc(C(=O)N[C@H]2CCN(S(=O)(=O)N3CCC(N)CC3)[C@@H](C)C2)c1 [compound 619, N-((2S,4S)-1-((4-aminopiperidin-1-yl)sulfonyl)-2-methylpiperidin-4-yl)-5-ethylpyridazine-3-carboxamide]	59.6	468	–
O=C1Cc2cc(C(=O)NC3CCN(S(=O)(=O)CC4CCNCC4)CC3)ccc2N1 [compound 620, 2-oxo-N-[1-[(piperidin-4-ylmethane)sulfonyl]piperidin-4-yl]-2,3-dihydro-1H-indole-5-carboxamide Trifluoroacetate]	68.2	≥ 10000	–
NCCCS(=O)(=O)N1CCC(NC(=O)c2cc3c(cc2Cl)NC(=O)C3)CC1 [compound 621, N-(1-((3-aminopropyl)sulfonyl)piperidin-4-yl)-6-chloro-2-oxoindoline-5-carboxamide]	77.5	6840	–
N[C@H]1CC[C@H](S(=O)(=O)N2[C@@H]3CC[C@H]2C[C@@H](NC(=O)c2ccc4c(c2)OC(F)(F)O4)C3)CC1 [compound 623, N-((1R,3R,5S)-8-(((1r,4R)-4-aminocyclohexyl)sulfonyl)-8-azabicyclo[3.2.1]octan-3-yl)-2,2-difluorobenzo[d][1,3]dioxole-5-carboxamide]	136	896	–
NCCCS(=O)(=O)N1CCC(NC(=O)c2ccc3c(c2)CC(=O)N3)CC1 [compound 624, N-(1-((3-aminopropyl)sulfonyl)piperidin-4-yl)-2-oxoindoline-5-carboxamide]	159	≥ 10000	–
NC1CCN(S(=O)(=O)N2[C@@H]3CC[C@H]2C[C@@H](NC(=O)c2ccc4c(c2)OC(F)(F)O4)C3)CC1 [compound 626, N-((1R,3r,5S)-8-((4-aminopiperidin-1-yl)sulfonyl)-8-azabicyclo[3.2.1]octan-3-yl)-2,2-difluorobenzo[d][1,3]dioxole-5-carboxamide]	222	2970	–
O=C(N[C@H]1C[C@H]2CC[C@@H](C1)N2S(=O)(=O)[C@H]1CC[C@H](NCc2ccccc2)CC1)c1ccc2c(c1)OC(F)(F)O2 [compound 627, N-((1R,3R,5S)-8-(((1r,4R)-4-(benzylamino)cyclohexyl)sulfonyl)-8-azabicyclo[3.2.1]octan-3-yl)-2,2-difluorobenzo[d][1,3]dioxole-5-carboxamide]	225	1540	–
O=C(N[C@H]1C[C@H]2CC[C@@H](C1)N2S(=O)(=O)CC1CCNCC1)c1ccc2c(c1)OC(F)(F)O2 [compound 628, 2,2-difluoro-N-((1R,3r,5S)-8-((piperidin-4-ylmethyl)sulfonyl)-8-azabicyclo[3.2.1]octan-3-yl)benzo[d][1,3]dioxole-5-carboxamide]	232	3620	–
CCc1cc(C(=O)N[C@@H]2CCN(S(=O)(=O)N3CCC(N)CC3)[C@@H](C)C2)ns1 [compound 629, N-((2S,4R)-1-(4-aminopiperidin-1-ylsulfonyl)-2-methylpiperidin-4-yl)-5-ethyl-1,2-thiazole-3-carboxamide]	326	2080	–
CN1CCC(CS(=O)(=O)N2[C@@H]3CC[C@H]2C[C@@H](NC(=O)c2ccc4c(c2)OC(F)(F)O4)C3)CC1 [compound 630, 2,2-difluoro-N-((1R,3r,5S)-8-(((1-methylpiperidin-4-yl)methyl)sulfonyl)-8-azabicyclo[3.2.1]octan-3-yl)benzo[d][1,3]dioxole-5-carboxamide]	361	6550	–
C[C@H]1C[C@H](NC(=O)c2nnc(C3CC3)s2)CCN1S(=O)(=O)N1CCC(N)CC1 [compound 631, N-((2S,4R)-1-((4-aminopiperidin-1-yl)sulfonyl)-2-methylpiperidin-4-yl)-5-cyclopropyl-1,3,4-thiadiazole-2-carboxamide]	470	4900	–
